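Cells were grown in 96-well plates and exposed to each compound for 48 hours at five concentrations; endpoints were interpolated linearly between bracketing concentrations, or set to the highest concentration if not reached. At the GI50, growth is halved. TGI: total growth inhibition.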
How the values were obtained:
Experiment in all cases: NCI tumour cell line growth inhibition, 48 h
LOX IMVI melanoma = test system: LOX IMVI melanoma
NCI-H226 lung = test system: NCI-H226 lung
SW-620 colon = test system: SW-620 colon
OVCAR-5 ovarian = test system: OVCAR-5 ovarian
PC-3 prostate = test system: PC-3 prostate
UO-31 renal = test system: UO-31 renal
SF-295 CNS = test system: SF-295 CNS
M14 melanoma = test system: M14 melanoma
SK-MEL-5 melanoma = test system: SK-MEL-5 melanoma
SN12C renal = test system: SN12C renal
A549 NSCLC = test system: A549 NSCLC
U251 CNS = test system: U251 CNS
T-47D breast = test system: T-47D breast
K-562 leukemia = test system: K-562 leukemia
ACHN renal = test system: ACHN renal
HT29 colon = test system: HT29 colon
SK-OV-3 ovarian = test system: SK-OV-3 ovarian
COLO 205 colon = test system: COLO 205 colon
RPMI-8226 leukemia = test system: RPMI-8226 leukemia
OVCAR-8 ovarian = test system: OVCAR-8 ovarian
BT-549 breast = test system: BT-549 breast
HS 578T breast = test system: HS 578T breast
HL-60(TB) leukemia = test system: HL-60(TB) leukemia
SNB-19 CNS = test system: SNB-19 CNS
CCRF-CEM leukemia = test system: CCRF-CEM leukemia
UACC-62 melanoma = test system: UACC-62 melanoma
SK-MEL-2 melanoma = test system: SK-MEL-2 melanoma
TK-10 renal = test system: TK-10 renal
SNB-75 CNS = test system: SNB-75 CNS
HCT-116 colon = test system: HCT-116 colon
HOP-62 NSCLC = test system: HOP-62 NSCLC
IGROV1 ovarian = test system: IGROV1 ovarian
MALME-3M melanoma = test system: MALME-3M melanoma
SK-MEL-28 melanoma = test system: SK-MEL-28 melanoma
A498 renal = test system: A498 renal
MDA-MB-435 = test system: MDA-MB-435
CAKI-1 renal = test system: CAKI-1 renal
NCI/ADR-RES ovarian = test system: NCI/ADR-RES ovarian
HOP-92 NSCLC = test system: HOP-92 NSCLC
DU-145 prostate = test system: DU-145 prostate
OVCAR-4 ovarian = test system: OVCAR-4 ovarian
786-0 renal = test system: 786-0 renal
SF-539 CNS = test system: SF-539 CNS
SR leukemia = test system: SR leukemia
HCC-2998 colon = test system: HCC-2998 colon
RXF 393 renal = test system: RXF 393 renal
HCT-15 colon = test system: HCT-15 colon
KM12 colon = test system: KM12 colon
MDA-MB-231 breast = test system: MDA-MB-231 breast
UACC-257 melanoma = test system: UACC-257 melanoma
EKVX NSCLC = test system: EKVX NSCLC
NCI-H460 lung = test system: NCI-H460 lung
SF-268 CNS = test system: SF-268 CNS

Question: With `COc1ccc(N2CCN(C3=C(Cl)C(=O)c4ncccc4C3=O)CC2)cc1` as the compound, how does the GI50 (LOX IMVI melanoma) read?
Answer: 1.75 µM

Question: What about the TGI (LOX IMVI melanoma) of the same compound?
Answer: 3.56 µM

Question: What about the GI50 (NCI-H226 lung) of the same compound?
Answer: 16.2 µM

Question: What about the TGI (NCI-H226 lung) of the same compound?
Answer: 35.9 µM

Question: What about the GI50 (SW-620 colon) of the same compound?
Answer: 1.63 µM

Question: What about the TGI (SW-620 colon) of the same compound?
Answer: 3.79 µM

Question: What about the GI50 (OVCAR-5 ovarian) of the same compound?
Answer: 16.2 µM

Question: What about the TGI (OVCAR-5 ovarian) of the same compound?
Answer: 30.3 µM

Question: What about the GI50 (PC-3 prostate) of the same compound?
Answer: 13.8 µM

Question: What about the TGI (PC-3 prostate) of the same compound?
Answer: 29.1 µM

Question: And the GI50 (UO-31 renal)?
Answer: 2 µM

Question: And the TGI (UO-31 renal)?
Answer: 6.83 µM

Question: What about the GI50 (SF-295 CNS) of the same compound?
Answer: 13.9 µM

Question: And the TGI (SF-295 CNS)?
Answer: 28.3 µM

Question: And the GI50 (M14 melanoma)?
Answer: 3.04 µM

Question: And the TGI (M14 melanoma)?
Answer: 10.5 µM

Question: What about the GI50 (SK-MEL-5 melanoma) of the same compound?
Answer: 12.8 µM

Question: And the TGI (SK-MEL-5 melanoma)?
Answer: 25.5 µM

Question: What about the GI50 (SN12C renal) of the same compound?
Answer: 11.1 µM

Question: What about the TGI (SN12C renal) of the same compound?
Answer: 25.6 µM

Question: And the GI50 (A549 NSCLC)?
Answer: 15.9 µM

Question: What about the TGI (A549 NSCLC) of the same compound?
Answer: 35.2 µM

Question: And the GI50 (U251 CNS)?
Answer: 10.7 µM

Question: And the TGI (U251 CNS)?
Answer: 24.1 µM

Question: And the GI50 (T-47D breast)?
Answer: 1.78 µM

Question: What about the TGI (T-47D breast) of the same compound?
Answer: 4.26 µM

Question: What about the GI50 (K-562 leukemia) of the same compound?
Answer: 3.03 µM

Question: And the TGI (K-562 leukemia)?
Answer: 12 µM

Question: And the GI50 (ACHN renal)?
Answer: 1.78 µM

Question: What about the TGI (ACHN renal) of the same compound?
Answer: 3.37 µM

Question: And the GI50 (HT29 colon)?
Answer: 4.71 µM

Question: And the TGI (HT29 colon)?
Answer: 18.2 µM

Question: What about the GI50 (SK-OV-3 ovarian) of the same compound?
Answer: 12.2 µM

Question: And the TGI (SK-OV-3 ovarian)?
Answer: 25.2 µM

Question: And the GI50 (COLO 205 colon)?
Answer: 2.01 µM

Question: What about the TGI (COLO 205 colon) of the same compound?
Answer: 4.04 µM

Question: What about the GI50 (RPMI-8226 leukemia) of the same compound?
Answer: 2.69 µM

Question: What about the TGI (RPMI-8226 leukemia) of the same compound?
Answer: 7.32 µM

Question: What about the GI50 (OVCAR-8 ovarian) of the same compound?
Answer: 4.87 µM

Question: And the TGI (OVCAR-8 ovarian)?
Answer: 17.9 µM

Question: What about the GI50 (BT-549 breast) of the same compound?
Answer: 4.23 µM

Question: What about the TGI (BT-549 breast) of the same compound?
Answer: 14.1 µM

Question: What about the GI50 (HS 578T breast) of the same compound?
Answer: 14.1 µM

Question: What about the TGI (HS 578T breast) of the same compound?
Answer: 39 µM

Question: And the GI50 (HL-60(TB) leukemia)?
Answer: 1.48 µM

Question: And the TGI (HL-60(TB) leukemia)?
Answer: 4.46 µM

Question: And the GI50 (SNB-19 CNS)?
Answer: 16.9 µM

Question: What about the TGI (SNB-19 CNS) of the same compound?
Answer: 32.9 µM

Question: What about the GI50 (CCRF-CEM leukemia) of the same compound?
Answer: 2.8 µM

Question: And the TGI (CCRF-CEM leukemia)?
Answer: > 100 µM

Question: And the GI50 (UACC-62 melanoma)?
Answer: 5.99 µM

Question: And the TGI (UACC-62 melanoma)?
Answer: 19.3 µM

Question: And the GI50 (SK-MEL-2 melanoma)?
Answer: 12 µM

Question: And the TGI (SK-MEL-2 melanoma)?
Answer: 25.4 µM

Question: And the GI50 (TK-10 renal)?
Answer: 4.11 µM

Question: What about the TGI (TK-10 renal) of the same compound?
Answer: 11.6 µM

Question: And the GI50 (SNB-75 CNS)?
Answer: 14.3 µM

Question: And the TGI (SNB-75 CNS)?
Answer: 28.8 µM

Question: And the GI50 (HCT-116 colon)?
Answer: 1.92 µM

Question: And the TGI (HCT-116 colon)?
Answer: 3.85 µM

Question: What about the GI50 (HOP-62 NSCLC) of the same compound?
Answer: 19.1 µM

Question: And the TGI (HOP-62 NSCLC)?
Answer: 38 µM

Question: What about the GI50 (IGROV1 ovarian) of the same compound?
Answer: 3.25 µM

Question: And the TGI (IGROV1 ovarian)?
Answer: 11.6 µM

Question: What about the GI50 (MALME-3M melanoma) of the same compound?
Answer: 2.06 µM

Question: And the TGI (MALME-3M melanoma)?
Answer: 6.05 µM

Question: What about the GI50 (SK-MEL-28 melanoma) of the same compound?
Answer: 3.8 µM

Question: And the TGI (SK-MEL-28 melanoma)?
Answer: 13.2 µM

Question: And the GI50 (A498 renal)?
Answer: 15 µM

Question: And the TGI (A498 renal)?
Answer: 29.1 µM

Question: What about the GI50 (MDA-MB-435) of the same compound?
Answer: 1.94 µM

Question: And the TGI (MDA-MB-435)?
Answer: 3.68 µM

Question: What about the GI50 (CAKI-1 renal) of the same compound?
Answer: 4.72 µM

Question: And the TGI (CAKI-1 renal)?
Answer: 17.1 µM

Question: What about the GI50 (NCI/ADR-RES ovarian) of the same compound?
Answer: 6.74 µM

Question: And the TGI (NCI/ADR-RES ovarian)?
Answer: 28.6 µM

Question: What about the GI50 (HOP-92 NSCLC) of the same compound?
Answer: 1.49 µM

Question: And the TGI (HOP-92 NSCLC)?
Answer: 3.03 µM

Question: What about the GI50 (DU-145 prostate) of the same compound?
Answer: 5.93 µM

Question: And the TGI (DU-145 prostate)?
Answer: 18.4 µM

Question: And the GI50 (OVCAR-4 ovarian)?
Answer: 2.18 µM

Question: What about the TGI (OVCAR-4 ovarian) of the same compound?
Answer: 5.36 µM

Question: What about the GI50 (786-0 renal) of the same compound?
Answer: 15.9 µM

Question: What about the TGI (786-0 renal) of the same compound?
Answer: 29.5 µM

Question: And the GI50 (SF-539 CNS)?
Answer: 7.66 µM

Question: And the TGI (SF-539 CNS)?
Answer: 21.2 µM

Question: What about the GI50 (SR leukemia) of the same compound?
Answer: 2.27 µM

Question: What about the TGI (SR leukemia) of the same compound?
Answer: 6.59 µM

Question: What about the GI50 (HCC-2998 colon) of the same compound?
Answer: 11.7 µM

Question: And the TGI (HCC-2998 colon)?
Answer: 26.5 µM

Question: What about the GI50 (RXF 393 renal) of the same compound?
Answer: 2.61 µM

Question: And the TGI (RXF 393 renal)?
Answer: 8.37 µM

Question: And the GI50 (HCT-15 colon)?
Answer: 2.66 µM

Question: What about the TGI (HCT-15 colon) of the same compound?
Answer: 11.3 µM

Question: What about the GI50 (KM12 colon) of the same compound?
Answer: 18.4 µM

Question: And the TGI (KM12 colon)?
Answer: 34.7 µM

Question: What about the GI50 (MDA-MB-231 breast) of the same compound?
Answer: 1.66 µM

Question: What about the TGI (MDA-MB-231 breast) of the same compound?
Answer: 3.26 µM

Question: And the GI50 (UACC-257 melanoma)?
Answer: 2.86 µM

Question: What about the TGI (UACC-257 melanoma) of the same compound?
Answer: 8.41 µM

Question: What about the GI50 (EKVX NSCLC) of the same compound?
Answer: 2.45 µM

Question: And the TGI (EKVX NSCLC)?
Answer: 7.05 µM

Question: What about the GI50 (NCI-H460 lung) of the same compound?
Answer: 5.86 µM

Question: What about the TGI (NCI-H460 lung) of the same compound?
Answer: 19.9 µM

Question: And the GI50 (SF-268 CNS)?
Answer: 19.2 µM

Question: What about the TGI (SF-268 CNS) of the same compound?
Answer: 50.1 µM

— PubChem BioAssay (NCI)
